For assay [1], the system named is mouse model of abdominal wall lymphedema. The experiment in a line: Mouse model of abdominal wall lymphedema, thickness of the skin section (wild-type mouse). The format is in vivo, C57BL/6J mouse. The conditions noted are these: for lymphedema (thickness of the skin): C57BL/6J mice, combined results of Experiments 2 and 3, pitavastatin 1 mg/kg/day, atorvastatin 2.5 or 1 mg/kg/day, pravastatin 1 mg/kg/day oral, after seven days, FIG. 2. As to the method: (§1) A male C57BL/6J mouse and a male eNOS-deficient mouse having a genetic background of C57BL/6J, both of which are eight weeks old at the time of surgery, each receives an intraperitoneal injection of Nembutal at 60 mg/kg, and further receives a subcutaneous injection of 1% Evans blue for identification of lymph nodes and lymphatic vessels in the dorsum of the right foot, the back of the hand, and the buttocks in an amount of 0.05 mL at each site. The abdominal hair was removed and the abdominal skin is incised in an open-door fashion so as to identify the inguinal lymph nodes, axillary lymph nodes, and lymphatic vessels connecting these lymph nodes in the right abdominal wall. The lymphatic vessels are ligated at two to three sites near the axillary lymph nodes, followed by excision of the axillary lymph nodes. Subsequently, the skin is sutured, whereby the surgery is completed. On the seventh day after the surgery, the abdominal skin is once again incised in an open-door fashion to collect the abdominal wall tissues. The mice were orally administered with the statins dissolved in distilled water (250 μl) from three days before to seven days after the surgery once a day. […] Methanol-fixed paraffin-embedded tissue sections were stained with hematoxylin, and the thickness of the skin section prepared from the upper inguinal area, which is the lowermost part of a mouse, was measured. Anatomically, interstitial fluid tends to be accumulated in this area.

For assay [2] the test system is unchanged. Nature of the assay: Mouse model of abdominal wall lymphedema, thickness of the skin section (eNOS-deficient mouse). The format is in vivo, eNOS-deficient mouse having a genetic background of C57BL/6J. The conditions noted are these: Experiment 1, 10 mg/kg/day oral, once a day from three days before to seven days after the surgery, FIG. 1. As to the method:
as §1, with “Anatomically, interstitial fluid tends to be accumulated in this area.” left out

Assay [3] has the same test system. The experiment in a line: Visual examination by lymphangiography (Evans blue): leakage of lymph fluid and lymphatic flow in the lymphedema model. The conditions noted are these: C57BL/6J mice; administration method of Experiment 3 (1 mg/kg/day oral); lymphangiography on the seventh and fourteenth days after the surgery; FIG. 3. Type of assay: in vivo, C57BL/6J mouse. As to the method: A male C57BL/6J mouse and a male eNOS-deficient mouse having a genetic background of C57BL/6J, both of which are eight weeks old at the time of surgery, each receives an intraperitoneal injection of Nembutal at 60 mg/kg, and further receives a subcutaneous injection of 1% Evans blue for identification of lymph nodes and lymphatic vessels in the dorsum of the right foot, the back of the hand, and the buttocks in an amount of 0.05 mL at each site. The abdominal hair was removed and the abdominal skin is incised in an open-door fashion so as to identify the inguinal lymph nodes, axillary lymph nodes, and lymphatic vessels connecting these lymph nodes in the right abdominal wall. The lymphatic vessels are ligated at two to three sites near the axillary lymph nodes, followed by excision of the axillary lymph nodes. Subsequently, the skin is sutured, whereby the surgery is completed. […]
On the seventh and fourteenth days after the surgery, 0.05 μl of 1% Evans blue was locally injected into the inguinal lymph nodes for lymphangiography, whereby leakage of lymph fluid and lymphatic flow were evaluated.
Each statin was administered by the administration method employed in Experiment 3) and the leakage of lymph fluid and lymphatic flow were evaluated by lymphangiography of the lymph node tissues.

We go through 2 compounds from patent US20130210860A1, “PROPHYLACTIC AND/OR THERAPEUTIC AGENT AGAINST LYMPHEDEMA” (KOWA CO., LTD., priority 2010, published 2013).

Regarding `CC[C@H](C)C(=O)O[C@H]1C[C@H](O)C=C2C=C[C@H](C)[C@H](CC[C@@H](O)C[C@@H](O)CC(=O)O)[C@H]21` [pravastatin, (+)-(3R,5R)-3,5-dihydroxy-7-[(1S,2S,6S,8S,8aR)-6-hydroxy-2-methyl-8-[(S)-2-methylbutyryloxy]-1,2,6,7,8,8a-hexahydro-1-naphthyl]heptanoic acid], the “lymphedema (thickness of the skin)” value in assay [1] is “markedly inhibit”.

As for `O=C(O)C[C@H](O)C[C@H](O)/C=C/c1c(C2CC2)nc2ccccc2c1-c1ccc(F)cc1` [pitavastatin, (3R,5S,6E)-7-[2-cyclopropyl-4-(4-fluorophenyl)-3-quinolyl]-3,5-dihydroxy-6-heptenoic acid], the “lymphedema (thickness of the skin)” value in assay [1] is reported as “markedly inhibit”. Besides, the “lymphedema (thickness of the skin section prepared from the upper inguinal area)” value in assay [1] (wild-type mouse, Experiment 1, 10 mg/kg/day oral, once a day from three days before to seven days after the surgery, FIG. 1) is reported as “markedly inhibited”; in assay [2], “markedly inhibited”. Moreover, in assay [3], the “leakage of lymph fluid” value is given as “markedly inhibited”.
